# Experimental data reported in patent publication EP0101944A1, “Immunomodulators containing as the active ingredient alpha-benzyl malic acid” (MICROBIAL CHEMISTRY RESEARCH FOUNDATION, priority 1982, dated 1984).
# Tests used:
# cell-mediated immunity [1] = experiment: Delayed-type hypersensitivity (D.T.H.) to sheep red blood cells, foot pad swelling in normal mice; format: in vivo, CDF1 mice; settings: single dose; for Thickness of the foot pad: SRBC-sensitized female CDF1 mice, measured 24 h after challenge, control 8.6 ± 1.29; for % on the control's value: foot pad thickness, control = 100 %
# Description: The action of &-benzyl malic acid on cell-mediated immunity was investigated using as its index the degree of delayed-type hypersensitivity (hereinafter referred to as D.T.H.) obtained by inoculating the foot pads of mice with sheep red blood cells (hereinafter referred to as SRBC) used as the antigen (Reference: J.Exp.Med. 139, 1529-1539, 1974).
# A suspension of […] SRBCs in 0.05 ml of physiological saline solution was inoculated subcutaneously to the foot pad of one of the hind legs of CDF1 mice (female, 8 weeks old). Simultaneously, an aqueous solution containing 5, 0.5, 0.05 or 0.005 mg/kg of α-benzyl malic acid was administered intraperitoneally in a single dose. Four days after administration, a suspension of 10^8 SRBCs in 0.05 ml of physiological saline solution was subcutaneously administered to the foot pad of the other hind leg to induce secondary immune response. Twenty-four hours later, swelling on the foot pad (increased thickness of the foot pad) was measured with a calipers. The thickness of the foot pad in control animals, which had been sensitized with SRBCs and intraperitoneally administered physiological saline solution without having received the test compound, was evaluated to be 100 %. The thickness of the foot pad in the test animals that had been treated in the aforementioned way was compared with that in the control animals, thereby judging the cell-mediated immunity potentiating effect of the test compound.
# cell-mediated immunity [2] = experiment: Picryl chloride ear swelling in cancer-inflicted (Ascites Sarcoma 180) mice; format: in vivo, CDF1 mice; settings: for Increase in ear thickness: Sarcoma 180-bearing female CDF1 mice, picryl chloride, control 4.11 ± 1.11; for Rate to the control value: increase in ear thickness T/C, control = 100.0
# Source text: (Effect on cell-mediated immunity in cancer-inflicted mice; picryl chloride was used as the antigen)
# 10^6 cells of Ascites Sarcoma 180 were intraperitoneally transplanted to groups of 12-week-old female CDF1 mice (6 mice/group). The day of transplantation was designated as Day 0. On Day 1, a 6 % solution of picryl chloride in ethanol was applied to a shaven skin (25 mm x 15 mm) of the abdomen with the use of a cut absorbent cotton (20 mm x 20 mm x 2 mm) impregnated with the solution to thereby sensitize the mice. On Day 8, both ears were measured for thickness with a dial gauge, to determine the baseline value (a).
# Then, both ears were sensitized with a 20 mm x 4 mm x 1 mm cut absorbent cotton impregnated with a 1 % solution of picryl chloride in olive oil. On Day 9, both swollen ears were measured for their thickness with a dial gauge to obtain a value (b). The baseline value (a) was subtracted from the value (b) to determine the increase in ear thickness (b - a) for the control group (C).
# On the other hand, 5.0, 0.5, 0.05 or 0.005 mg/kg of the test compound dissolved in physiological saline solution was orally administered once daily for 6 consecutive days between the day and 8 days after inoculation of Sarcoma 180. The mice were sensitized with picryl chloride in the same way as in the control group, and the thickness of the ears was similarly measured to determine the increase in ear thickness (b' - a') for the treatment group (T).
# The rate of increase in ear thickness for the treatment group to that for the control group was calculated from the following equation: [formula] to determine the cell-mediated immunity modulating activity of the present compound.
# [3] = Acute toxicity test in mice; format: in vivo; settings: i.v. dose of 500 mg/kg
# Source text: The present compound is therefore believed to be a safe substance.
# [4] = 0.005 mg/kg orally once daily for 6 consecutive days
# [5] = 0.05 mg/kg orally once daily for 6 consecutive days
# [6] = 0.5 mg/kg orally once daily for 6 consecutive days
# [7] = 5.0 mg/kg orally once daily for 6 consecutive days
SMILES,Thickness of the foot pad (cell-mediated immunity [1]; 0.005 mg/kg intraperitoneally) [x 0.1 mm],% on the control's value (cell-mediated immunity [1]; 0.005 mg/kg intraperitoneally) [%],Thickness of the foot pad (cell-mediated immunity [1]; 0.05 mg/kg intraperitoneally) [x 0.1 mm],% on the control's value (cell-mediated immunity [1]; 0.05 mg/kg intraperitoneally) [%],Thickness of the foot pad (cell-mediated immunity [1]; 0.5 mg/kg intraperitoneally) [x 0.1 mm],% on the control's value (cell-mediated immunity [1]; 0.5 mg/kg intraperitoneally) [%],Thickness of the foot pad (cell-mediated immunity [1]; 5 mg/kg intraperitoneally) [x 0.1 mm],% on the control's value (cell-mediated immunity [1]; 5 mg/kg intraperitoneally) [%],Increase in ear thickness (cell-mediated immunity [2]; [4]) [x 0.01 mm],Rate to the control value (cell-mediated immunity [2]; [4]) [%],Increase in ear thickness (cell-mediated immunity [2]; [5]) [x 0.01 mm],"Increase in ear thickness (cell-mediated immunity [2]; 0.05 mg/kg orally once daily for 6 consecutive days, listed as the present compound)",Rate to the control value (cell-mediated immunity [2]; [5]) [%],Increase in ear thickness (cell-mediated immunity [2]; [6]) [x 0.01 mm],Rate to the control value (cell-mediated immunity [2]; [6]) [%],Increase in ear thickness (cell-mediated immunity [2]; [7]) [x 0.01 mm],Rate to the control value (cell-mediated immunity [2]; [7]) [%],deaths in acute toxicity tests [3]
O=C(O)CC(O)(Cc1ccccc1)C(=O)O (stereo not drawn) [α-benzyl malic acid],11.8 ± 1.15,137,13.4 ± 1.61,156,14.4 ± 1.52,167,12.8 ± 1.42,149,5.18 ± 0.67,126.0,5.29 ± 0.33,5.29 + 0.33 x 0.01 mm,128.7,5.08 ± 0.56,123.6,4.71 ± 0.95,114.6,no deaths
"CC(C)C[C@H](NC(=O)[C@@H](O)[C@H](N)Cc1ccccc1)C(=O)O [Bestatin, [(2S,3R)-5-amino-2-hydroxy-4-phenyl-(S)-leucine], reference compound]",–,–,–,–,12.6 ± 1.12,147,–,–,–,–,–,–,–,–,–,–,–,–
